{
  "source": "patent US20210189342A1",
  "about": "“COMPOSITIONS AND METHODS FOR MODULATING MONOCYTE AND MACROPHAGE INFLAMMATORY PHENOTYPES AND IMMUNOTHERAPY USES THEREOF” (Verseau Therapeutics, Inc., priority 2018, published 2021)",
  "molecules": {"B1": {"name": "Ab 18: recombinant human IgG4 (S228P) chimera, lambda light chain; variable regions in Table 6 (antibody, V domains shown)", "VH": "EVQLLESGGGLVRPGGSLRLSCAASGFTFSSYAMSWVRQAPGKGLEWVSAISGSGGSTYYADSVKGRFTISRDNSKNTLYLQMNSLRAEDTAVYYCARDKRLTYWGQGTMVTVSS", "VL": "QSVVTQPPSVSAAPGQKVTISCSGSSSNIGNNYVSWYQQLPGTAPKLLIYDNNKRPSGIPDRFSGSKSGTSATLGITGLQTGDEADYYCGTWDSSLSARVFGGGTKVTVL", "modifications": "human IgG4 S228P constant regions"}, "B2": {"name": "Ab 8: recombinant human IgG4 (S228P) chimera, kappa light chain; variable regions in Table 6 (antibody, V domains shown)", "VH": "QVQLQQSGPGLVKPSQTLSLTCAISGDSVSSNIAAWHWIRLSPSRGLEWLGRTYYRRSKWNYDYALSVKSRININPDTSKNLFSLQLNSVTPEDTAVYYCTRGGGRAHSAWGQGTLVTVSS", "VL": "EIVLTQSPGTLSVSPGERATLSCRASQSVSRSHLAWYQQKPGQAPRLLIFGASSRATGIPDRFSGSGSGTDFTLTISRLEPEDFAVYYCQQYGRPGVTFGQGTKVEIK", "modifications": "human IgG4 S228P constant regions"}},
  "key": {"FERMT3": {"test_system": "FERMT3", "test": "siRNA dose response, FERMT3 mRNA knockdown, bDNA Assay", "type": "cell-based, human", "details": "THP-1, 24 hr", "method": "(§1) Dose response curves for siRNAs were generated in vitro using a variety of cell lines according to Table 4.\n(§2) Briefly, cells were seeded in 96-well plates and reverse transfected with siRNA, Lipofectamine® 2000 (0.5 uL/well; ThermoFisher), and, in some cases, a reporter plasmid (50 ng/well). The reporter plasmid (psiCHECK™-2, Promega) encoded both firefly luciferase and the gene of interest fused to renilla luciferase; silencing of the gene of interest results in proportional silencing of renilla luciferase but leaves firefly luciferase unaffected as an internal control.\n(§3) After 24 hr incubation at 37° C., mRNA knockdown was measured using an endpoint assay. For targets without a reporter plasmid, a branched DNA (bDNA) assay was performed according to the manufacturer's instructions (QuantiGene® Singleplex Gene Expression Assay, ThermoFisher) to measure both the target gene and GAPDH (housekeeping gene) mRNA. Data are plotted as siRNA concentration (nM) vs. remaining mRNA (ratio of target gene to GAPDH, normalized to mock siRNA-transfected cells). For targets with a reporter plasmid, a Dual-Glo® Luciferase Assay was performed according to the manufacturer's instructions (Promega) to measure firefly and renilla luciferase expression. Data are plotted as siRNA concentration (nM) vs. remaining mRNA (ratio of renilla to firefly luminescence, normalized to mock siRNA-transfected cells).\n(§4) For all dose response curves, a 4-parameter logistic model was applied to determine the IC50 of each siRNA sequence (Table 5 and FIG. 2). Data shown in Table 5 and FIG. 2 represent the mean of quadruplicates, +/−standard deviation."}, "DOCK2": {"test_system": "DOCK2", "test": "siRNA dose response, DOCK2 mRNA knockdown, bDNA Assay", "type": "cell-based, human", "details": "THP-1, 24 hr", "method": "as §1, §2, §3, §4"}, "M2 macrophages [1]": {"test_system": "M2 macrophages", "test": "macrophage differentiation assay with antibodies, M1 and M2 markers", "type": "cell-based", "details": "primary human macrophages under M2 skewing; antibody on day 1, 3 and 7; FIG. 4", "excerpt": "Monocytes were differentiated in vitro to M1-like (Type 1) and/or M2-like (Type 2) phenotypes (Ries et a. (2014) Cancer Cell 25:846-859; Vogel et al. (2014) Immunobiol. 219:695-703). In order to differentiate monocytes into M1 versus M2 phenotypes monocytes were isolated from whole blood of healthy donors by Ficoll separation with RosetteSep™ Human Monocyte Enrichment Cocktail (Stemcell Technologies, Vancouver, Canada) according to the manufacturer's instructions. Isolated monocytes were arrayed in 24-well plates overnight in IMDM Media containing 10% fetal bovine serum and non-adherent cells were washed off after 24 hours. […] Expression of M1 and M2 macrophage markers and surface expressed targets was assessed by flow cytometry. […]\nLabeled cells were washed twice with FACS buffer and fixed with PBS+2% paraformaldehyde for flow cytometry analysis on an Attune™ flow cytometer (ThermoFisher). Data were analyzed via FlowJo software. Morphology was assessed via microscopy.\nBriefly, monocytes were isolated from whole blood of fresh donors by Ficoll separation with RosetteSep™ Human Monocyte Enrichment Cocktail (Stemcell Techhnologies, Vancouver Canada) according to the manufacturer's instructions. […] Cells were assessed for expression of M1 and M2 markers as described above and cell free supernatants were collected for analysis. […]"}, "M2 macrophages [2]": {"test_system": "M2 macrophages", "test": "M2 macrophage polarization, antibodies added only during the last two days, cytokines", "type": "cell-based, human", "details": "10 ug/mL (77, 78, 81-84 at 1 ug/mL), FIGS. 4D-4G", "method": "Briefly, monocytes were isolated from whole blood of fresh donors by Ficoll separation with RosetteSep™ Human Monocyte Enrichment Cocktail (Stemcell Techhnologies, Vancouver Canada) according to the manufacturer's instructions. Isolated monocytes were arrayed in 24-well plates overnight in Iscove's Modified Dubelcos Media ([…]) (ThermoFisher) media containing 10% fetal bovine serum and non-adherent cells were washed off after 24 hours. Monocytes were differentiated into macrophages by culturing for 6 days in IMDM 10% FBS plus 50 ng/ml human M-CSF for M2 macrophages, or 50 ng/ml GM-CSF (Biolegend, San Diego, Calif.) for M1 macrophages. M1 macrophages were activated on day 6 with IFN-gamma and LPS, whereas M2 macrophages were polarized on day 6 with 20 ng/ml IL-10 and activated on day 7 with 100 ng/ml LPS. […] Cells were assessed for expression of M1 and M2 markers as described above and cell free supernatants were collected for analysis. Data are representative of at least 3-4 healthy donors.\nBeyond phenotypic surface markers, M1 (such as Type 1) and M2 (such as Type 2) macrophages produce different cytokines and chemokines. For example, M1 macrophages produce more pro-inflammatory cytokines, including but not limited to, GM-CSF, IL-12, and TNF alpha, whereas M2 macrophages produce more pro-tumorigenic and immunosuppressive cytokines, such as VEGF, IL-10, and TGFb. […]"}},
  "data": [
    {"molecule": "XD-09701: siRNA targeting FERMT3 (sense 5'-ggcuGcGcuucAAguAcuAdTsdT-3'; antisense 5'-uAGuACUUGAAGCGcAGCCdTsdT-3'; RNA with 2'-O-methyl and phosphorothioate modifications, case key not given here, as printed in the source, key not given here)", "values": [
      {"measurement": "IC50", "setting": "FERMT3", "value": 921, "unit": "pM"}
    ]},
    {"molecule": "XD-09705: siRNA targeting FERMT3 (sense 5'-guucccGAuGuuAacGucudTsdT-3'; antisense 5'-AGACGUuAAcAUCGGGAACdTsdT-3'; RNA with 2'-O-methyl and phosphorothioate modifications, case key not given here, as printed in the source, key not given here)", "values": [
      {"measurement": "IC50", "setting": "FERMT3", "value": 6750, "unit": "pM"}
    ]},
    {"molecule": "XD-09709: siRNA targeting FERMT3 (sense 5'-guAGcuAcAGGAugAuGAAdTsdT-3'; antisense 5'-UUcAUcAUCCUGuAGCuACdTsdT-3'; RNA with 2'-O-methyl and phosphorothioate modifications, case key not given here, as printed in the source, key not given here)", "values": [
      {"measurement": "IC50", "setting": "FERMT3", "value": 48, "unit": "pM"}
    ]},
    {"molecule": "XD-09694: siRNA targeting DOCK2 (sense 5'-ccAucuGcGAuucauGuuudTsdT-3'; antisense 5'-AAAcAUGAAUCGcAGAUGGdTsdT-3'; RNA with 2'-O-methyl and phosphorothioate modifications, case key not given here, as printed in the source, key not given here)", "values": [
      {"measurement": "IC50", "setting": "DOCK2", "value": 403, "unit": "pM"}
    ]},
    {"molecule": "XD-09696: siRNA targeting DOCK2 (sense 5'-cucAuuGcAGAccgGAAAudTsdT-3'; antisense 5'-AUUUCCGGUCUGcAAUGAGdTsdT-3'; RNA with 2'-O-methyl and phosphorothioate modifications, case key not given here, as printed in the source, key not given here)", "values": [
      {"measurement": "IC50", "setting": "DOCK2", "value": 1780, "unit": "pM"}
    ]},
    {"molecule": "XD-09708: siRNA targeting FERMT3 (sense 5'-gcuGccGAAuuGuacAcGAdTsdT-3'; antisense 5'-UCGUGuAcAAUUCGGcAGCdTsdT-3'; RNA with 2'-O-methyl and phosphorothioate modifications, case key not given here, as printed in the source, key not given here)", "values": [
      {"measurement": "IC50", "setting": "FERMT3", "value": 12, "unit": "pM"}
    ]},
    {"molecule": "B1", "values": [
      {"measurement": "effect on macrophage phenotypic marker sets (classical and novel biomarkers), reversal of skewing towards M2", "setting": "M2 macrophages [1]", "value": "dose-titratable effect"},
      {"measurement": "polarization of M2 macrophages to a more M1-like state, increase in pro-inflammatory cytokines", "setting": "M2 macrophages [2]", "value": "dramatically effect polarization of M2 macrophages to a more M1-like state"}
    ]},
    {"molecule": "B2", "values": [
      {"measurement": "effect on macrophage phenotypic marker sets (classical and novel biomarkers), reversal of skewing towards M2", "setting": "M2 macrophages [1]", "value": "dose-titratable effect"},
      {"measurement": "polarization of M2 macrophages to a more M1-like state, increase in pro-inflammatory cytokines", "setting": "M2 macrophages [2]", "value": "dramatically effect polarization of M2 macrophages to a more M1-like state"}
    ]}
  ]
}
